# Values quoted from earlier work, collected in publication PMC9788431, “Combination of Docking-Based and Pharmacophore-Based Virtual Screening Identifies Novel Agonists That Target the Urotensin Receptor” (Molecules, 2022).
# Values joined by “and” are separate entries in the source; they are usually repeats but may differ in a detail not shown here. Equal entries are not always repeated. Positions of bridges follow the written chain, without caps; N, C: chain ends. Non-standard residues stand in square brackets, D forms with d. Residues, ends and D or L forms follow the SMILES beside them. Phe(4-I) = N[C@@H](Cc1ccc(I)cc1)C(=O)O; dTle = CC(C)(C)[C@@H](N)C(=O)O
# Target: T1, UT receptor (Homo sapiens, UniProt Q9UKP6)
# T1 construct: SNAP-tag; expressed in transfected cells; host or cells: 293A8 (HEK293A stably transfected with the UT receptor); inferred, the calcium-assay paragraph names no cells
# T1 sequence (Q9UKP6 1-389): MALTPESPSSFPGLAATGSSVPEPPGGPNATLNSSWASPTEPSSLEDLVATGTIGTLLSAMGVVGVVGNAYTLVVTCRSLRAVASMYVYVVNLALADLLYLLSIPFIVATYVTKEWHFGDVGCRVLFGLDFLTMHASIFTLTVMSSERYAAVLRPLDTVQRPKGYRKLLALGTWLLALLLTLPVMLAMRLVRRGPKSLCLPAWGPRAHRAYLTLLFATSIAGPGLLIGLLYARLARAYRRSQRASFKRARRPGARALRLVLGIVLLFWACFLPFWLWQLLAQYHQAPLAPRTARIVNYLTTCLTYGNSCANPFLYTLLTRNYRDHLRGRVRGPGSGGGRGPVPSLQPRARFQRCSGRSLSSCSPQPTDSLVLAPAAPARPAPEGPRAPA
# Settings: agonist; Table S1 benchmarking ligands; ref ChEMBL database and others; cited from earlier work
row,Compound,EC50
1,CC(C)[C@H](NC(=O)[C@H](CS)NC(=O)[C@H](Cc1ccc(O)cc1)NC(=O)[C@H](CCCCN)NC(=O)[C@H](Cc1c[nH]c2ccccc12)NC(=O)[C@H](Cc1ccccc1)NC(=O)[C@H](CS)NC(=O)[C@H](CC(=O)O)NC(=O)[C@H](C)NC(=O)[C@@H](NC(=O)[C@@H](N)CCC(=O)O)[C@@H](C)O)C(=O)O [CHEMBL2372897] (H-ETADCFWKYCV-OH),1.9 nM
2,NCCCC[C@@H]1NC(=O)[C@H](Cc2c[nH]c3ccccc23)NC(=O)[C@H](Cc2ccc(O)cc2)NC(=O)CNC(=O)[C@@H]2CCCN2C(=O)[C@H](Cc2ccc(O)cc2)NC1=O [CHEMBL607810] (cyclo(GYWKYP)),12.6 nM
3,CC(C)[C@H](NC(=O)[C@H](CS)NC(=O)[C@H](C)NC(=O)[C@H](CCCCN)NC(=O)[C@H](Cc1c[nH]c2ccccc12)NC(=O)[C@H](Cc1ccccc1)NC(=O)[C@H](CS)NC(=O)[C@H](CC(=O)O)NC(=O)[C@H]1CCCN1C(=O)[C@@H](NC(=O)[C@@H](N)CCC(=O)O)[C@@H](C)O)C(=O)O [CHEMBL2372903] (H-ET[dP]DCFWKACV-OH),193 nM
4,CN(C)CCC(NC(=O)c1ccc(-c2ccc3ccccc3c2)cc1)c1ccc2ccccc2c1 (stereo not drawn) [CHEMBL578853],525 nM
5,C=CCN(CC=C)c1ccc2c(c1)CC(CCN(C)C)(c1ccc(Cl)cc1)OC2=O (stereo not drawn) [CHEMBL1173081],724 nM
6,CN(C)CCC(NC(=O)/C=C/c1ccccc1)c1ccc(Cl)cc1 (stereo not drawn) [CHEMBL374817],427 nM
7,CN(C)CCC(NC(=O)c1ccc(-c2ccc(Cl)cc2)cc1)c1ccc(Cl)cc1 (stereo not drawn) [CHEMBL572882],75.9 nM
8,CN(C)CCC(NC(=O)C#Cc1ccccc1)c1ccc2ccccc2c1 (stereo not drawn) [CHEMBL229764],457 nM
9,CC(C)[C@H](NC(=O)[C@H](CS)NC(=O)[C@H](Cc1ccc(O)cc1)NC(=O)[C@H](CCCCN)NC(=O)[C@H](Cc1c[nH]c2ccccc12)NC(=O)[C@H](Cc1ccccc1)NC(=O)[C@H](CS)NC(=O)[C@H](CC(=O)O)NC(=O)[C@H]1CCCN1C(=O)[C@@H](NC(=O)[C@H](C)N)[C@@H](C)O)C(=O)O [CHEMBL2372899] (H-AT[dP]DCFWKYCV-OH),1.8 nM
10,CN(C)CC[C@H](NC(=O)c1ccc(-c2ccc(Cl)cc2)cc1)c1ccc2ccccc2c1 [CHEMBL573392],22.9 nM
11,COc1ccc(-c2cccc(C(=O)NC(CCN(C)C)c3ccc4ccccc4c3)c2)cc1 (stereo not drawn) [CHEMBL573574],646 nM
12,CN(C)CCC1(c2ccc(Cl)cc2)Cc2ccccc2C(=O)O1 (stereo not drawn) [CHEMBL535141],251 nM and 316 nM
13,CN(C)CCC(NC(=O)Nc1ccc(C(F)(F)F)cc1)c1ccc(Cl)cc1 (stereo not drawn) [CHEMBL425592],117 nM
14,CN(C)CCC(NC(=O)c1ccc(-c2ccc(Cl)cc2)cc1)c1ccc2ccccc2c1 (stereo not drawn) [CHEMBL572439],43.6 nM
15,CC(C)[C@H](NC(=O)[C@@H]1CSSC[C@H](NC(=O)[C@@H](N)CC(=O)O)C(=O)N[C@@H](Cc2ccc(I)cc2)C(=O)N[C@@H](Cc2c[nH]c3ccccc23)C(=O)N[C@@H](CCCCN)C(=O)N[C@@H](Cc2ccc(O)cc2)C(=O)N1)C(=O)O [CHEMBL4205274] (H-DC[Phe(4-I)]WKYCV-OH; disulfide 2-7),191 nM
16,Cc1ccc(C(CCN(C)C)NC(=O)c2cccc(-c3ccccc3)c2)cc1 (stereo not drawn) [CHEMBL572392],813 nM
17,CN(C)CCC1(c2ccc(Cl)cc2)Cc2ccccc2CO1 (stereo not drawn) [CHEMBL1173172],501 nM
18,COc1ccc(/C=C/C(=O)NC(CCN(C)C)c2ccc3ccccc3c2)cc1 (stereo not drawn) [CHEMBL229714],380 nM
19,CN(C)CCC(NC(=O)c1ccc(-c2ccccc2)cc1)c1ccc(Cl)cc1 (stereo not drawn) [CHEMBL583981],77.6 nM

row,Compound,EC50
1,CN(C)CCC(NC(=O)Nc1ccc(-c2ccccc2)cc1)c1ccc(Cl)cc1 (stereo not drawn) [CHEMBL206811],145 nM
2,CN(C)CC[C@H](NC(=O)c1ccc(-c2ccccc2)cc1)c1ccc(Cl)cc1 [CHEMBL207823],32.4 nM
3,CN(C)CCCC(NC(=O)c1ccc(-c2ccccc2)cc1)c1ccc(Cl)cc1 (stereo not drawn) [CHEMBL576746],316 nM
4,Cc1cc2c(cc1C)CC(CCN(C)C)(c1ccc3ccccc3c1)OC2 (stereo not drawn) [CHEMBL1172223],263 nM
5,CN(C)CCC(NC(=O)Cc1ccc(C(F)(F)F)cc1)c1ccc2ccccc2c1 (stereo not drawn) [CHEMBL390792],575 nM
6,CC(C)[C@H](NC(=O)[C@H](CS)NC(=O)[C@H](Cc1ccc(O)cc1)NC(=O)[C@H](CCCCN)NC(=O)[C@H](Cc1c[nH]c2ccccc12)NC(=O)[C@H](Cc1ccccc1)NC(=O)[C@H](CS)NC(=O)[C@@H](N)CC(=O)O)C(=O)O [CHEMBL414256] (H-DCFWKYCV-OH),3 nM
7,CC(C)[C@H](NC(=O)[C@H](CS)NC(=O)[C@H](Cc1ccc(O)cc1)NC(=O)[C@H](CCCCN)NC(=O)[C@H](Cc1c[nH]c2ccccc12)NC(=O)[C@H](CS)NC(=O)[C@H](CC(=O)O)NC(=O)[C@H]1CCCN1C(=O)[C@@H](NC(=O)[C@@H](N)CCC(=O)O)[C@@H](C)O)C(=O)O [CHEMBL412753] (H-ET[dP]DCWKYCV-OH),53 nM
8,CN(C)CC[C@@H](NC(=O)c1ccc(-c2ccc(Cl)cc2)cc1)c1ccc2ccccc2c1 [CHEMBL573640],457 nM
9,CSCC[C@H](NC(=O)CNC(=O)[C@@H](NC(=O)CNC(=O)[C@@H](NC(=O)[C@H](NC(=O)[C@H](CC(N)=O)NC(=O)[C@H](CCCNC(=N)N)NC(=O)[C@H](Cc1ccccc1)NC(=O)[C@@H](N)CO)C(C)(C)C)C(C)C)[C@@H](C)O)C(=O)N[C@@H](CCCCN)C(=O)N[C@@H](CCCCN)C(=O)N[C@H](C(=O)N[C@@H](CO)C(=O)N[C@@H](Cc1ccccc1)C(=O)N[C@@H](CCC(N)=O)C(=O)N[C@@H](CCCNC(=N)N)C(=O)N[C@@H](C)C(=O)N[C@@H](CCCCN)C(=O)N[C@@H](CO)C(=O)O)[C@@H](C)O [CHEMBL1627325] (H-SFRN[dTle]VGTGMKKTSFQRAKS-OH),3.47 nM
10,CN(C)CCC(NC(=O)c1cccc(-c2ccc3ccccc3c2)c1)c1ccc(Cl)cc1 (stereo not drawn) [CHEMBL573575],363 nM
11,Cc1ccc(C(CCN(C)C)NC(=O)c2ccc(-c3ccccc3)cc2)cc1 (stereo not drawn) [CHEMBL572398],200 nM
12,COc1ccc(-c2ccc(C(=O)NC(CCN(C)C)c3ccc4ccccc4c3)cc2)cc1 (stereo not drawn) [CHEMBL578654],105 nM
13,CN(C)CCC(OC(=O)Nc1ccc(C(F)(F)F)cc1)c1ccc(Cl)cc1 (stereo not drawn) [CHEMBL203051],251 nM
14,CN(C)CCC(NC(=O)CCc1ccc(C(F)(F)F)cc1)c1ccc2ccccc2c1 (stereo not drawn) [CHEMBL229710],372 nM
15,CC(C)[C@H](NC(=O)[C@H](CS)NC(=O)[C@H](Cc1ccc(O)cc1)NC(=O)[C@H](CCCCN)NC(=O)[C@H](Cc1c[nH]c2ccccc12)NC(=O)[C@H](Cc1ccccc1)NC(=O)[C@H](CS)NC(=O)[C@H](CC(=O)O)NC(=O)[C@H]1CCCN1C(=O)[C@@H](NC(=O)[C@@H](N)CCC(=O)O)[C@@H](C)O)C(=O)O [CHEMBL408106],2.5 nM
16,NCCCC[C@@H]1NC(=O)[C@H](Cc2c[nH]c3ccccc23)NC(=O)[C@H](Cc2ccccc2)NC(=O)CNC(=O)[C@@H]2CCCN2C(=O)[C@H](Cc2c[nH]c3ccccc23)NC1=O [CHEMBL608098] (cyclo(FWKWPG)),20.6 nM
17,CN(C)CCC(OC(=O)Nc1ccc2ccccc2c1)c1ccc(Cl)cc1 (stereo not drawn) [CHEMBL203937],525 nM
18,CN(C)CCC(NC(=O)c1ccc(Oc2ccccc2)cc1)c1ccc(Cl)cc1 (stereo not drawn) [CHEMBL203626],66.1 nM

# Target: T1, UT receptor
# Parameters: method as in ChEMBL database and others
# Settings: antagonist; Table S1 benchmarking ligands; ref ChEMBL database and others; cited from earlier work
row,Compound,IC50 [nM]
1,COc1ccc([C@@H](CCCNS(=O)(=O)c2cccs2)N2C(=O)c3cccc(N4CCNCC4)c3C2=O)cc1OC [CHEMBL566366],500
2,COc1ccc([C@H](CCCNS(=O)(=O)c2cccs2)N2C(=O)c3cccc(N4CCN([C@H](C)c5ccccc5)CC4)c3C2=O)cc1OC [CHEMBL565580],260
3,CCN1CCN(c2cccc3c2CN([C@H](CCCNS(=O)(=O)c2c[nH]cn2)c2ccc(OC)c(OC)c2)C3=O)CC1 [CHEMBL578207],51
4,COc1cc(Br)c(CNc2ccc(C(F)(F)F)c(O[C@H]3CCN(C)C3)c2)cc1OC [CHEMBL2348511],191
5,COc1cccc(-c2ccc3cc(C(=O)NC4CCN(Cc5ccc(OC6CCNCC6)c(Br)c5)CC4)sc3c2)c1 [CHEMBL3987058],87
6,O=C(NC1CCN(Cc2ccc(OC3CCNCC3)c(Br)c2)CC1)c1cc2cc(C(F)(F)F)ccc2s1 [CHEMBL3906682],100
7,CC(C)[C@H](NC(=O)[C@@H]1CSSC[C@H](NC(=O)[C@H](C)N)C(=O)N[C@@H](Cc2ccccc2)C(=O)N[C@H](c2ccccc2)C(=O)N[C@@H](CCCCN)C(=O)N[C@@H](Cc2ccc(O)cc2)C(=O)N1)C(=O)O [CHEMBL3104463],27.5
8,Cc1ccc(CC2(O)CCN(CCNC(=O)Nc3ccnc4ccsc34)CC2)cc1 [CHEMBL3358684],190
9,CC(C)[C@H](NC(=O)[C@@H]1CSSC[C@H](NC(=O)[C@H](C)N)C(=O)N[C@@H](Cc2ccccc2)C(=O)N2CCc3ccccc3[C@@H]2C(=O)N[C@@H](CCCCN)C(=O)N[C@@H](Cc2ccc(O)cc2)C(=O)N1)C(=O)O [CHEMBL3104465],21
10,COc1cccc(CNc2ccc(C(F)(F)F)c(O[C@H]3CCN(C)C3)c2)c1 [CHEMBL2348517],691
11,COc1ccc([C@@H](CCCN(C)S(=O)(=O)c2cccs2)N2Cc3c(cccc3N3CCN(C(C)C)CC3)C2=O)cc1OC [CHEMBL578203],500
12,COc1cc(Br)c(SCc2ccc(Cl)c(O[C@@H]3CCN(C)C3)c2)cc1OC [CHEMBL2348505],440
13,COc1ccc([C@@H](CCCNS(=O)(=O)c2cccs2)N2Cc3c(cccc3N3CCN(C(C)C)CC3)C2=O)cc1OC [CHEMBL568637],53
14,COc1cc(Br)c(S(=O)(=O)Nc2ccc(C(F)(F)F)c(OCCN3CCN(C)CC3)c2)cc1OC [CHEMBL2348527],840
